In patent publication US11084781B2, “Diarylureas as CB1 allosteric modulators” (Research Triangle Institute, priority 2017, dated 2021):
Like-named read-outs stand apart in the source and are kept apart here.

How the values were obtained:
human CB1 receptor [1] = molecular target: T1, human CB1 receptor (Homo sapiens, UniProt P21554); assay: CB1 calcium mobilization assay, agonist screen; type: cell-based; settings: 10,000 nM final concentration, mean ± SD
T1 construct: host or cells: CHO-RD-HGA16 cells (CHO cells overexpressing promiscuous Galpha16)

human CB1 receptor [2] = molecular target: T1, human CB1 receptor; assay: CB1 calcium mobilization assay (antagonist mode, against EC80 of CP55,940); type: cell-based
CB1 receptor = molecular target: T2, CB1 receptor (Mus musculus, UniProt P47746); assay: [35S]GTP-γ-S binding assay in mouse cerebellar membranes, CP55,940-stimulated; type: biochemical; settings: CP55,940 (100 nM) stimulation, mean (95% confidence interval)
T2 construct: from tissue; host or cells: cerebellar membranes of adult male CD-1 mice

[3] = Table 1, against EC80 (100 nM) of CP55,940, mean ± S.E.M., read-out: CB1 calcium assay IC50

T2 sequence (P47746 whole entry): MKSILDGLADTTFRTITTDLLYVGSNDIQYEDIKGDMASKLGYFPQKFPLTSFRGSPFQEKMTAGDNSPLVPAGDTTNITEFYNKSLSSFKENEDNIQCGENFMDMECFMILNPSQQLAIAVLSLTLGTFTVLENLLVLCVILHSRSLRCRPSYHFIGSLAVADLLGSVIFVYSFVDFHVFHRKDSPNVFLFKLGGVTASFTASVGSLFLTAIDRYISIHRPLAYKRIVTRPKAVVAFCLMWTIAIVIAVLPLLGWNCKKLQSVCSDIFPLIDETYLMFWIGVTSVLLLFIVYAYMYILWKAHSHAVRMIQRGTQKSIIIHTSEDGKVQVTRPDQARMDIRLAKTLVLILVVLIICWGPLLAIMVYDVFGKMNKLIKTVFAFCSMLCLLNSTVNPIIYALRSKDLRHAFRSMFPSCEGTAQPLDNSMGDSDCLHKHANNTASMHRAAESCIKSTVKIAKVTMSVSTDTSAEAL
T1 sequence (P21554 whole entry): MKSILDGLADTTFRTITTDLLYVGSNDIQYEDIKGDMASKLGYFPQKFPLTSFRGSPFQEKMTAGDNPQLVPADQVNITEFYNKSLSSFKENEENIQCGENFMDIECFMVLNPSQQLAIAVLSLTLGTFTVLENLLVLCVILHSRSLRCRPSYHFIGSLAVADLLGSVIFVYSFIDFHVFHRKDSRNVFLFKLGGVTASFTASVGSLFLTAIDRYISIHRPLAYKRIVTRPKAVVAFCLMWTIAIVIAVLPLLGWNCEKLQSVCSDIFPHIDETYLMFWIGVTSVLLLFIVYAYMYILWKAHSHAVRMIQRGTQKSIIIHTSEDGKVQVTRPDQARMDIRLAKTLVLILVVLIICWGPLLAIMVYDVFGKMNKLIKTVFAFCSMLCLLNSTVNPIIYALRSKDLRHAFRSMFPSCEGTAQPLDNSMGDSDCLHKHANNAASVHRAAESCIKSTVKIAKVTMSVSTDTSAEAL

SMILES | CB1 calcium assay Agonist screen (% CP55, 940 Emax) (human CB1 receptor [1]; Table 1) | IC50 (human CB1 receptor [2]; [3]) [nM] | further results
COc1cccc(-c2cccc(NC(=O)Nc3ccc(Cl)cc3)c2)n1 [Compound 15, 3-(4-Chlorophenyl)-1-[3-(6-methoxypyridin-2-yl)phenyl]urea] | 2.4 ± 0.2 % CP55, 940 Emax | 231 ± 14 | –
Cc1ccnc(-c2cccc(NC(=O)Nc3ccc(Cl)cc3)c2)c1 [Compound 16, 3-(4-Chlorophenyl)-1-[3-(4-methylpyridin-2-yl)phenyl]urea] | 2.9 ± 0.1 % CP55, 940 Emax | – | –
COc1cc(-c2cccc(NC(=O)Nc3ccc(Cl)cc3)c2)ccn1 [Compound 17, 3-(4-Chlorophenyl)-1-[3-(2-methoxypyridin-4-yl)phenyl]urea] | 23.4 ± 1.9 % CP55, 940 Emax | 133 ± 6 | IC50 (CB1 receptor): 1320 nM
O=C(Nc1ccc(Cl)cc1)Nc1cccc(-c2ccccn2)c1 [Compound 18, 3-(4-Chlorophenyl)-1-[3-(pyridin-2-yl)phenyl]urea] | 8.8 ± 3.1 % CP55, 940 Emax | 47 ± 13 | IC50 (CB1 receptor): 2650 nM
O=C(Nc1ccc(Cl)cc1)Nc1cccc(-c2cccnc2)c1 [Compound 19, 3-(4-Chlorophenyl)-1-[3-(pyridin-3-yl)phenyl]urea] | 34.2 ± 9.3 % CP55, 940 Emax | 244 ± 45 | –
O=C(Nc1ccc(Cl)cc1)Nc1cccc(-c2cncnc2)c1 [Compound 21, 3-(4-Chlorophenyl)-1-[3-(pyrimidin-5-yl)phenyl]urea] | 2.5 ± 6.2 % CP55, 940 Emax | 290 ± 24 | –
O=C(Nc1ccc(Cl)cc1)Nc1cccc(-c2cccc(O)c2)c1 [Compound 24, 3-(4-Chlorophenyl)-1-[3-(3-hydroxyphenyl)phenyl]urea] | 9.8 ± 1.6 % CP55, 940 Emax | 840 ± 130 | –
Cc1cccc(-c2cccc(NC(=O)Nc3ccc(Cl)cc3)c2)c1 [Compound 27, 3-(4-Chlorophenyl)-1-[3-(3-methylphenyl)phenyl]urea] | – | – | IC50 (CB1 receptor): 456 nM
Cc1ccccc1-c1cccc(NC(=O)Nc2ccc(Cl)cc2)c1 [Compound 28, 3-(4-Chlorophenyl)-1-[3-(2-methylphenyl)phenyl]urea] | 4.4 ± 2.7 % CP55, 940 Emax | 190 ± 45 | –
O=C(Nc1ccc(Cl)cc1)Nc1cccc(-c2cccc([N+](=O)[O-])c2)c1 [Compound 29, 3-(4-Chlorophenyl)-1-[3-(3-nitrophenyl)phenyl]urea] | – | 27 ± 2 | IC50 (CB1 receptor): 452 nM
O=C(Nc1ccc(Cl)cc1)Nc1cccc(-c2ccc(Cl)cc2)c1 [Compound 30, 3-(4-Chlorophenyl)-1-[3-(4-chlorophenyl)phenyl]urea] | 21.3 ± 3.7 % CP55, 940 Emax | 95 ± 9 | –
O=C(Nc1ccc(Cl)cc1)Nc1cccc(-c2c(Cl)cccc2Cl)c1 [Compound 33, 3-(4-Chlorophenyl)-1-[3-(2,6-dichlorophenyl)phenyl]urea] | 17.2 ± 3.1 % CP55, 940 Emax | 338 ± 19 | –
O=C(Nc1ccc(Cl)cc1)Nc1cccc(-c2ccc(F)cc2F)c1 [Compound 35, 3-(4-Chlorophenyl)-1-[3-(2,4-difluorophenyl)phenyl]urea] | – | 18 ± 1 | IC50 (CB1 receptor): 353 nM
CC(C)(C)c1ccc(-c2cccc(NC(=O)Nc3ccc(Cl)cc3)c2)cc1 [Compound 36, 3-(4-Chlorophenyl)-1-[3-(4-tert-butylphenyl)phenyl]urea] | 4.0 ± 1.0 % CP55, 940 Emax | 591 ± 48 | –
CC(C)(C)c1cc(-c2cccc(NC(=O)Nc3ccc(Cl)cc3)c2)cc(C(C)(C)C)c1 [Compound 37, 3-(4-Chlorophenyl)-1-[3-(3,5-di-tert-butylphenyl)phenyl]urea] | 10.4 ± 2.1 % CP55, 940 Emax | 460 ± 39 | –
O=C(Nc1ccc(Cl)cc1)Nc1cccc(-c2ccc(-c3ccccc3)cc2)c1 [Compound 39, 3-(4-Chlorophenyl)-1-[3-(4-phenylphenyl)phenyl]urea] | −0.7 ± 2.4 % CP55, 940 Emax | 1340 ± 370 | –
O=C(Nc1ccc(Cl)cc1)Nc1cccc(-c2ccc(C(=O)c3ccccc3)cc2)c1 [Compound 40, 3-(4-Chlorophenyl)-1-[3-(4-benzoylphenyl)phenyl]urea] | 12.9 ± 1.7 % CP55, 940 Emax | – | –
O=C(Nc1ccc(Cl)cc1)Nc1cccc(-c2ccc3ccccc3c2)c1 [Compound 42, 3-(4-Chlorophenyl)-1-[3-(naphthalen-2-yl)phenyl]urea] | 6.9 ± 0.5 % CP55, 940 Emax | – | IC50 (CB1 receptor): 1520 nM
O=C(Nc1ccc(Cl)cc1)Nc1cccc(-c2ccc3ccccc3n2)c1 [Compound 43, 3-(4-Chlorophenyl)-1-[3-(quinolin-2-yl)phenyl]urea] | 4.5 ± 0.7 % CP55, 940 Emax | – | IC50 (CB1 receptor): 1890 nM
O=C(Nc1ccc(Cl)cc1)Nc1cccc(-c2ccoc2)c1 [Compound 46, 3-(4-Chlorophenyl)-1-[3-(furan-3-yl)phenyl]urea] | – | 41 ± 9 | IC50 (CB1 receptor): 440 nM
O=C(Nc1ccc(Cl)cc1)Nc1ccc(-c2ccccc2)cc1 [Compound 59, 3-(4-Chlorophenyl)-1-(4-phenylphenyl)urea] | – | – | CB1 calcium assay Agonist screen (% CP55, 940 Emax) (human CB1 receptor [1]; Table 2): 21 ± 4 % CP55, 940 Emax; IC50 (human CB1 receptor [2]; Table 2, against EC80 (100 nM) of CP55,940, mean ± S.E.M., read-out: CB1 calcium assay IC50): 66 ± 9 nM
O=C(Nc1ccc(Cl)cc1)Nc1cccc(N2CCCC2)c1 [Compound 78, 1-(4-Chlorophenyl)-3-[3-(pyrrolidin-1-yl)phenyl]urea] | 0.6 ± 0.5 % CP55, 940 Emax | 40 ± 4 | –
O=C(Nc1ccc(Cl)cc1)Nc1cccc(N2CCC2)c1 [Compound 80, 3-[3-(Azetidin-1-yl)phenyl]-1-(4-chlorophenyl)urea] | – | 35 ± 5 | IC50 (CB1 receptor): 1380 nM
O=C(Nc1ccc(Cl)cc1)Nc1cccc(N2C3CCC2CC3)c1 [Compound 82, 3-(4-Chlorophenyl)-1-{3-[(1S,4S)-7-azabicyclo[2.2.1]heptan-7-yl]phenyl}urea] | 5.5 ± 1.3 % CP55, 940 Emax | – | IC50 (human CB1 receptor [2]): 2700 nM

The next lines start with results.

CB1 calcium assay Agonist screen (% CP55, 940 Emax) (human CB1 receptor [1]; Table 1) | IC50 (human CB1 receptor [2]; [3]) [nM] | SMILES | further results
−0.1 ± 0.1 % CP55, 940 Emax | 1260 ± 160 | O=C(Nc1ccc(Cl)cc1)Nc1cccc(-c2ccc3c(c2)Cc2ccccc2-3)c1 [Compound 45, 3-(4-Chlorophenyl)-1-[3-(9H-fluoren-2-yl)phenyl]urea] | –
1.1 ± 0 % CP55, 940 Emax | 174 ± 31 | O=C(Nc1ccc(Cl)cc1)Nc1cccc(N2CCCCC2)c1 [Compound 76, 3-(4-Chlorophenyl)-1-[3-(piperidin-1-yl)phenyl]urea] | –
12.4 ± 1.8 % CP55, 940 Emax | 360 ± 64 | O=C(Nc1ccc(Cl)cc1)Nc1cccc(N2CCOCC2)c1 [Compound 77, 1-(4-Chlorophenyl)-3-[3-(morpholin-4-yl)phenyl]urea] | –
27.6 ± 2.0 % CP55, 940 Emax | 2880 | CN1CCN(c2cccc(NC(=O)Nc3ccc(Cl)cc3)c2)CC1 [Compound 79, 1-(4-Chlorophenyl)-3-[3-(4-methylpiperazin-1-yl)phenyl]urea] | –
14.0 ± 0.6 % CP55, 940 Emax | 92 ± 9 | O=C(Nc1ccc(Cl)cc1)Nc1cccc(N2CCC(F)(F)CC2)c1 [Compound 81, 3-(4-Chlorophenyl)-1-[3-(4,4-difluoropiperidin-1-yl)phenyl]urea] | –
18.6 ± 1.1 % CP55, 940 Emax | 350 ± 37 | O=C(Nc1ccc(Cl)cc1)Nc1cccc(N2CCCCCC2)c1 [Compound 83, 1-[3-(Azepan-1-yl)phenyl]-3-(4-chlorophenyl)urea] | –
14.5 ± 4.9 % CP55, 940 Emax | 113 ± 19 | CN(C)c1cccc(NC(=O)Nc2ccc(Cl)cc2)c1 [Compound 85, 1-(4-Chlorophenyl)-3-[3-(dimethylamino)phenyl]urea] | –
20.9 ± 0.2 % CP55, 940 Emax | 297 ± 37 | CCN(CC)c1cccc(NC(=O)Nc2ccc(Cl)cc2)c1 [Compound 86, 3-(4-Chlorophenyl)-1-[3-(diethylamino)phenyl]urea] | –
27.5 ± 4.5 % CP55, 940 Emax | > 10000 | O=C(Nc1ccc(Cl)cc1)Nc1cccc(CN2CCCC2)c1 [Compound 90, 3-(4-Chlorophenyl)-1-[3-(pyrrolidin-1-ylmethyl)phenyl]urea] | –
13.6 ± 2.4 % CP55, 940 Emax | 520 ± 36 | COc1cccc(NC(=O)Nc2ccc(Cl)cc2)c1 [Compound 91, 3-(4-Chlorophenyl)-1-(3-methoxyphenyl)urea] | –
11.7 ± 1.4 % CP55, 940 Emax | 277 ± 36 | O=C(Nc1ccc(Cl)cc1)Nc1cccc(OC2CCCC2)c1 [Compound 95, 3-(4-Chlorophenyl)-1-[3-(cyclopentyloxy)phenyl]urea] | –
